Structures can show the parent of a compound that is named as a salt.
What was measured:
[1] = system: TNFα gene; experiment: Retrospective case-control study of abacavir hypersensitivity: TNFα polymorphisms (5′ nuclease assay); type: in vivo, human
Source text: Control subjects were matched for study (if possible) ethnicity, gender, CD4+ cell count (if available; four CD4+ ranges: <50, 50-200, 201-500, >500 cells/mm3); and age (plus or minus 5 years).
The presence of the TNFα G(−237A) polymorphism may be determined using a fluorescent dye and quenching agent-based PCR assay, such as the allele discrimination form of the 5′ nuclease assay (Lee and Bloch, Nucleic Acids Research 21:3761 (1993)). In brief, this assay uses two allele specific probes labeled differentially with fluorescent “reporter” dyes at the 5′ ends and with a common quenching agent at the 3′ ends. Normally the fluorescence of each reporter dye is quenched by the quenching agent when present in the same oligonucleotide molecule. The allele specific probes are used in conjunction with two primers, one of which hybridizes to the template 5′ of allele specific probes while the other hybridizes to the template 3′ of the such probes.
The presence of the TNFα G(−237)A polymorphisms was determined by the method of allelic discrimination using the 5′-nuclease assay. Two allele specific probes labeled with a different fluorescent dye at the 5′ ends, but with a common quenching agent at the 3′ ends, were used:
The two allele specific probes were designed using specialized computer software as is known in the art, such that certain properties (melting temperature, GC content, position of the polymorphic base, location within the amplicon) were matched as far as possible, only allowing complete hybridisation to the template DNA when the allele specific polymorphic base was present.
The allele specific probes were used in conjunction with two primers, one of which hybridized to the template 5′ of the two allele-specific probes, whilst the other hybridized to the template 3′ of the two probes:
If the allele corresponding to one of the specific probes was present, the specific probe hybridized perfectly to the target sequence derived from the template. The thermostable polymerase, extending the primer in a 5′ to 3′ direction toward the allele specific probe, then removed the nucleotides from the specific probe, releasing both the fluorescent dye and the quenching agent.
At the end of the thermal cycling PCR, the ABI PRISM™ 7700 sequence detection system was used to measure the increase in the fluorescence from each specific dye directly in PCR reaction vessels. The information from the reactions was then analyzed. If an individual was homozygous for a particular allele, fluorescence corresponding only to the dye from that specific probe was released, but if the individual was heterozygous, then fluorescence from both dyes increased.
(§1) Informed consent was obtained. Subjects were classified as either ‘case’ or ‘control’. The following criteria were used to identify cases: • 1.
(§2) Blood samples were collected into appropriate blood collection tubes.

[2] = system: MICB; experiment: Retrospective case-control study of abacavir hypersensitivity: MICB polymorphisms; type: in vivo, human; details: Table 12
Source text: A complete cds for the human MICB gene is provided at SEQ ID NO:4 (GenBank accession U65416). The MICB polymorphisms investigated in the present study included one in exon 2 (rs1065075) and one in exon 3 (rs1051788):
as §1, §2

[3] = system: ATP-dependent RNA helicase p47; experiment: Retrospective case-control study of abacavir hypersensitivity: ATP-dependent RNA helicase p47 polymorphisms; type: in vivo, human; details: Table 12
Source text: The protein encoded by this gene is a member a family of ATP-dependent RNA helicases, and is also known as HLA-B associated transcript 1 (BAT1) (see, e.g., GenBank Accession No. AF029061). A cluster of genes known as BAT1-BAT5 has been localized near the TNFα and TNFβ genes. Various polymorphisms have been identified in ATP dependent RNA Helicase p47, including:
as §1, §2

[4] = system: Alcohol Dehydrogenase ADH7; experiment: Retrospective case-control study of abacavir hypersensitivity: ADH7 polymorphism; type: in vivo, human; details: ADH7-C94T, Table 12
Source text: Informed consent was obtained. Subjects were classified as either ‘case’ or ‘control’. […] Blood samples were collected into appropriate blood collection tubes.

[5] = system: UDP-glucuronosyltransferase (UGT1A6-A551C); experiment: Retrospective case-control study of abacavir hypersensitivity: UGT1A6 polymorphism; type: in vivo, human; details: A1 = A, Table 12
Source text: as §1, §2

[6] = system: HLA-DR; experiment: Retrospective case-control study of abacavir hypersensitivity: HLA-DR typing; type: in vivo, human; details: Table 13
Source text: as §1, §2
Of these, the difference in frequency of HLA-B57 was the most significant (p<0.0001). HLA-B57 was present in 39 of 84 (46%) cases versus 4 of 113 (4%) controls.

[7] = cited from earlier work
[8] = system: TNFα gene; experiment: Retrospective case-control study of abacavir hypersensitivity: TNFα polymorphisms (5′ nuclease assay); type: in vivo, human; details: Table 12
[9] = MICB (exon 2) RS1065075, A1 = G
[10] = MICB (exon 2) RS1065075, A2 = A
[11] = MICB (exon 3) RS1051788, A1 = A
[12] = MICB (exon 3) RS1051788, A2 = G
[13] = ATP-dependent RNA helicase p47 (no reference), A2 = T
[14] = ATP-dependent RNA helicase p47 RS929138, A1 = C
[15] = ATP-dependent RNA helicase p47 RS929138, A2 = T

SMILES: Nc1nc(NC2CC2)c2ncn([C@H]3C=C[C@@H](CO)C3)c2n1 [abacavir, (cis)-4-[2-amino-6-(cyclopropylamino)-9H-purin-9-yl]-2-cyclopentene-1-methanol sulfate (salt) (2:1)]
- HSR cases carrying marker, % ([1]; TNFα (−237) RS361525, A2 = A, Table 12): 43%
- HSR cases carrying marker, % ([1]; TNFα G(−237)A 1,1 (G/G), Table 4, Cases N = 44): 50%
- Controls carrying marker, % ([1]; TNFα G(−237)A 1,1 (G/G), Table 4, Controls N = 76): 93%
- HSR cases carrying marker, % ([1]; TNFα G(−237)A 1,1 (G/G), Table 8 cumulative, Cases N = 57): 56%
- Controls carrying marker, % ([1]; TNFα G(−237)A 1,1 (G/G), Table 8 cumulative, Controls N = 99): 93%
- HSR cases carrying marker, % ([1]; TNFα G(−237)A 1,2 (G/A), Table 4, Cases N = 44): 45%
- Controls carrying marker, % ([1]; TNFα G(−237)A 1,2 (G/A), Table 4, Controls N = 76): 5%
- HSR cases carrying marker, % ([1]; TNFα G(−237)A 1,2 (G/A), Table 8 cumulative, Cases N = 57): 40%
- Controls carrying marker, % ([1]; TNFα G(−237)A 1,2 (G/A), Table 8 cumulative, Controls N = 99): 6 (6%)
- HSR cases carrying marker, % ([1]; TNFα G(−237)A 2,2 (A/A), Table 4, Cases N = 44): 5%
- Controls carrying marker, % ([1]; TNFα G(−237)A 2,2 (A/A), Table 4, Controls N = 76): 1 (1%)
- HSR cases carrying marker, % ([1]; TNFα G(−237)A 2,2 (A/A), Table 8 cumulative, Cases N = 57): 4%
- Controls carrying marker, % ([1]; TNFα G(−237)A 2,2 (A/A), Table 8 cumulative, Controls N = 99): 1 (1%)
- Controls carrying marker, % [2, 9]: 57%
- HSR cases carrying marker, % [2, 9]: 38%
- Controls carrying marker, % [2, 10]: 92%
- HSR cases carrying marker, % [2, 10]: 100%
- Controls carrying marker, % [2, 11]: 58%
- HSR cases carrying marker, % [2, 11]: 38%
- Controls carrying marker, % [2, 12]: 93%
- HSR cases carrying marker, % [2, 12]: 100%
- Controls carrying marker, % [3, 13]: 66%
- HSR cases carrying marker, % [3, 13]: 45%
- Controls carrying marker, % [3, 14]: 39%
- HSR cases carrying marker, % [3, 14]: 68%
- Controls carrying marker, % [3, 15]: 96%
- HSR cases carrying marker, % [3, 15]: 81%
- Controls carrying marker, % ([4]; A1 = C): 17%
- HSR cases carrying marker, % ([4]; A1 = C): 5%
- Controls carrying marker, % ([4]; A2 = T): 84%
- HSR cases carrying marker, % ([4]; A2 = T): 96%
- Controls carrying marker, % [5]: 60%
- HSR cases carrying marker, % [5]: 77%
- Controls carrying marker, % ([6]; HLA-DRB01): 21 (21%)
- HSR cases carrying marker, % ([6]; HLA-DRB01): 10%
- Controls carrying marker, % ([6]; HLA-DRB03): 18 (18%)
- HSR cases carrying marker, % ([6]; HLA-DRB03): 3%
- Controls carrying marker, % ([6]; HLA-DRB07): 21 (21%)
- HSR cases carrying marker, % ([6]; HLA-DRB07): 38%
- Hypersensitivity to abacavir, subjects affected ([7]; in clinical trials): approximately 5%
- Hypersensitivity reactions to abacavir, patients affected ([7]; patients who receive this agent alone or in combination with other antiretroviral agents): approximately 5%
- Hypersensitivity reactions that occurred without rash ([7]; share of hypersensitivity reactions): up to 30%
- Controls carrying marker, % ([8]; TNFα (−5, 100), A2 = G): 31%
- HSR cases carrying marker, % ([8]; TNFα (−5, 100), A2 = G): 13%
- Controls carrying marker, % ([8]; TNFα (−308) RS1800629, A2 = A): 28 (28%)
- HSR cases carrying marker, % ([8]; TNFα (−308) RS1800629, A2 = A): 8%

— US7858319B2, “Method of screening for drug hypersensitivity reaction” (SmithKline Beecham Corporation, priority 2001, dated 2010)
